Assay results as given in ChEMBL document CHEMBL1201862, “PubChem BioAssay data set” (2004).
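Exposure lasted 48 hours, with cells grown in 96-well plates and compounds tested at five concentrations. GI50: concentration for 50% inhibition of growth.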 Calls of active or inactive are those of the source. Rule as the data show it: active = GI50 up to about 1.1 µM and inactive = higher.

Assays:
Assay in all cases: DTP human tumour cell line panel, 48 h
[1] = test system: HT-29
[2] = test system: SK-MEL-28
[3] = test system: OVCAR-4
[4] = test system: MOLT-4
[5] = test system: HCT-15
[6] = test system: K562
[7] = test system: OVCAR-3
[8] = test system: SF-268
[9] = test system: SR
[10] = test system: HOP-62
[11] = test system: CCRF-CEM
[12] = test system: HOP-92
[13] = test system: SNB-75
[14] = test system: PC-3
[15] = test system: NCI/ADR-RES
[16] = test system: NCI-H460
[17] = test system: SK-MEL-5
[18] = test system: M14
[19] = test system: SK-OV-3
[20] = test system: UACC-62

`O=C(NCc1ccccc1)c1c(O)nc2ccccc2c1O` was tested, and the GI50 [1] was > 100 µM (inactive), the GI50 [2] was > 100 µM (inactive) and the GI50 [3] was > 100 µM (inactive). The GI50 [4] was > 100 µM (inactive), the GI50 [5] was greater than 100 µM and the GI50 [6] was > 100 µM (inactive). The GI50 [7] was > 100 µM (inactive), the GI50 [8] was > 100 µM (inactive) and the GI50 [9] was > 100 µM (inactive). For the same compound, the GI50 [10] was > 100 µM (inactive), the GI50 [11] was > 100 µM (inactive) and the GI50 [12] was > 100 µM (inactive). The GI50 [13] was > 100 µM (inactive), the GI50 [14] was > 100 µM (inactive) and the GI50 [15] was > 100 µM (inactive). The GI50 [16] was > 100 µM (inactive) and the GI50 [17] was > 100 µM (inactive).

For `CSc1ccc(/C=C/c2ccnc3ccccc23)cc1`, the GI50 [18] was 9.04 µM (inactive), the GI50 [1] was 14 µM (inactive) and the GI50 [2] was 17.4 µM (inactive). The GI50 [4] was 12.2 µM (inactive), the GI50 [5] was 11.5 µM and the GI50 [6] was 5.47 µM (inactive). The GI50 [7] was 13.2 µM (inactive), the GI50 [19] was 16 µM (inactive) and the GI50 [8] was 26 µM (inactive). For the same compound, the GI50 [9] was 5.64 µM (inactive), the GI50 [10] was 20.3 µM (inactive) and the GI50 [11] was 17.9 µM (inactive). For the same compound, the GI50 [12] was 16.4 µM (inactive), the GI50 [13] was 20.4 µM (inactive) and the GI50 [14] was 6.67 µM (inactive). The GI50 [15] was 9.73 µM (inactive), the GI50 [16] was 12.2 µM (inactive) and the GI50 [17] was 6.08 µM (inactive).

With `Cn1c(=O)c(C(=O)Nc2nc(C34CC5CC(CC(C5)C3)C4)cs2)c(O)c2ccccc21` the GI50 [1] was > 100 µM (inactive), the GI50 [2] was > 100 µM (inactive) and the GI50 [3] was > 100 µM (inactive). For the same compound, the GI50 [4] was > 10 µM (inactive), the GI50 [5] was greater than 100 µM and the GI50 [6] was 40 µM (inactive). For the same compound, the GI50 [7] was > 100 µM (inactive), the GI50 [8] was > 100 µM (inactive) and the GI50 [9] was 38.2 µM (inactive). For the same compound, the GI50 [10] was 10.7 µM (inactive), the GI50 [11] was 41.2 µM (inactive) and the GI50 [12] was 18.2 µM (inactive). The GI50 [13] was 56.1 µM (inactive), the GI50 [14] was > 100 µM (inactive) and the GI50 [15] was 13.2 µM (inactive). For the same compound, the GI50 [16] was > 100 µM (inactive) and the GI50 [17] was > 100 µM (inactive).

With `COc1cc2c(cc1OCCCCCCCCCCN1C(=O)c3cccc4cccc(c34)C1=O)N=C[C@@H]1CCCN1C2=O` the GI50 [18] was 13.7 µM (inactive), the GI50 [1] was 6.76 µM (inactive) and the GI50 [2] was 12.3 µM (inactive). The GI50 [3] was 1.31 µM (inactive), the GI50 [4] was 2.41 µM (inactive) and the GI50 [5] was 4.8 µM. For the same compound, the GI50 [6] was 5.26 µM (inactive), the GI50 [7] was 3.73 µM (inactive) and the GI50 [19] was 6.68 µM (inactive). For the same compound, the GI50 [8] was 8.51 µM (inactive), the GI50 [9] was 0.902 µM (active) and the GI50 [20] was 12.2 µM (inactive). The GI50 [10] was 14.3 µM (inactive), the GI50 [11] was 1.94 µM (inactive) and the GI50 [13] was 4.58 µM (inactive). For the same compound, the GI50 [14] was 3.13 µM (inactive), the GI50 [15] was 2.64 µM (inactive) and the GI50 [16] was 19.9 µM (inactive). The GI50 [17] was 10.9 µM (inactive).

With `CC1(C)CC(=O)c2c(-c3ccc(Cl)cc3)c(C#N)c(=S)n(C3OC(CO)C(O)C(O)C3O)c2C1` (stereo not given) the GI50 [18] was 45.7 µM (inactive), the GI50 [1] was 26.7 µM (inactive) and the GI50 [2] was 34.8 µM (inactive). The GI50 [3] was 49.2 µM (inactive), the GI50 [4] was 25 µM (inactive) and the GI50 [5] was 21.4 µM. The GI50 [6] was 13.6 µM (inactive), the GI50 [7] was 30.9 µM (inactive) and the GI50 [8] was 48.3 µM (inactive). The GI50 [9] was 22 µM (inactive), the GI50 [20] was 16.8 µM (inactive) and the GI50 [10] was 69.5 µM (inactive). The GI50 [11] was 26.2 µM (inactive), the GI50 [12] was 21.2 µM (inactive) and the GI50 [13] was 25.3 µM (inactive). The GI50 [14] was 17.2 µM (inactive), the GI50 [15] was 34.4 µM (inactive) and the GI50 [16] was 30.3 µM (inactive). For the same compound, the GI50 [17] was 15.2 µM (inactive).

In the case of `O=c1cc(-c2ccccc2)oc2c(-c3cc(Cl)cc4c(=O)cc(-c5ccccc5)oc34)cc(Cl)cc12`, the GI50 [18] is reported as 27.7 µM (inactive), the GI50 [1] is reported as 34 µM (inactive) and the GI50 [2] is reported as 35 µM (inactive). The GI50 [3] was 41.9 µM (inactive), the GI50 [4] was 10.2 µM (inactive) and the GI50 [5] was 29.5 µM. For the same compound, the GI50 [6] was 6.87 µM (inactive), the GI50 [7] was 24.3 µM (inactive) and the GI50 [19] was 16.7 µM (inactive). The GI50 [8] was 32.8 µM (inactive), the GI50 [9] was > 100 µM (inactive) and the GI50 [20] was 11.6 µM (inactive). The GI50 [10] was 31 µM (inactive), the GI50 [11] was 5.48 µM (inactive) and the GI50 [13] was 4.49 µM (inactive). For the same compound, the GI50 [14] was 7.87 µM (inactive), the GI50 [15] was 28.8 µM (inactive) and the GI50 [16] was 22.6 µM (inactive). For the same compound, the GI50 [17] was 15.5 µM (inactive).

In the case of `O=c1[nH]n(CCc2ccccc2CCl)c2ccc([N+](=O)[O-])cc12`, the GI50 [18] is reported as 58.1 µM (inactive), the GI50 [1] is reported as 88.1 µM (inactive) and the GI50 [2] is reported as > 100 µM (inactive). For the same compound, the GI50 [3] was 37.2 µM (inactive), the GI50 [4] was 72.8 µM (inactive) and the GI50 [5] was greater than 100 µM. For the same compound, the GI50 [6] was 38.9 µM (inactive), the GI50 [7] was > 100 µM (inactive) and the GI50 [8] was > 100 µM (inactive). For the same compound, the GI50 [9] was 50.9 µM (inactive), the GI50 [20] was 45.8 µM (inactive) and the GI50 [10] was > 100 µM (inactive). The GI50 [11] was 37 µM (inactive), the GI50 [12] was 67.6 µM (inactive) and the GI50 [14] was 78.3 µM (inactive). For the same compound, the GI50 [15] was 31.8 µM (inactive), the GI50 [16] was 57 µM (inactive) and the GI50 [17] was 29.7 µM (inactive).

`CCOC(=O)NC(C(C(=O)OCC)C(=O)OCC)(C(F)(F)F)C(F)(F)F` was tested, and the GI50 [18] was > 100 µM (inactive), the GI50 [1] was > 100 µM (inactive) and the GI50 [2] was > 100 µM (inactive). For the same compound, the GI50 [3] was > 100 µM (inactive), the GI50 [4] was > 100 µM (inactive) and the GI50 [5] was greater than 100 µM. For the same compound, the GI50 [6] was > 100 µM (inactive), the GI50 [7] was > 100 µM (inactive) and the GI50 [8] was > 100 µM (inactive). For the same compound, the GI50 [9] was > 100 µM (inactive), the GI50 [20] was > 100 µM (inactive) and the GI50 [10] was > 100 µM (inactive). The GI50 [11] was > 100 µM (inactive), the GI50 [12] was > 100 µM (inactive) and the GI50 [13] was > 100 µM (inactive). The GI50 [14] was > 100 µM (inactive), the GI50 [15] was > 100 µM (inactive) and the GI50 [16] was > 100 µM (inactive). The GI50 [17] was > 100 µM (inactive).

`N=C(N)Nc1ccc(CC(N)C(=O)O)cc1` (stereo not given) was tested, and the GI50 [18] was > 12.5 µM (inactive), the GI50 [1] was > 12.5 µM (inactive) and the GI50 [2] was > 12.5 µM (inactive). The GI50 [3] was > 12.5 µM (inactive), the GI50 [4] was > 12.5 µM (inactive) and the GI50 [5] was greater than 12.5 µM. The GI50 [6] was > 12.5 µM (inactive), the GI50 [7] was > 12.5 µM (inactive) and the GI50 [19] was > 12.5 µM (inactive). The GI50 [8] was > 12.5 µM (inactive), the GI50 [9] was > 12.5 µM (inactive) and the GI50 [20] was > 12.5 µM (inactive). For the same compound, the GI50 [10] was > 12.5 µM (inactive), the GI50 [11] was > 12.5 µM (inactive) and the GI50 [12] was > 12.5 µM (inactive). For the same compound, the GI50 [13] was > 12.5 µM (inactive), the GI50 [14] was > 12.5 µM (inactive) and the GI50 [15] was > 12.5 µM (inactive). For the same compound, the GI50 [17] was > 12.5 µM (inactive).

With `Cc1ccc(-c2c(C#N)c(N)[nH]c(=S)c2C#N)cc1` the GI50 [18] was 43.6 µM (inactive), the GI50 [1] was 48.2 µM (inactive) and the GI50 [2] was 26.2 µM (inactive). For the same compound, the GI50 [3] was 54.7 µM (inactive), the GI50 [4] was 16.6 µM (inactive) and the GI50 [5] was 38.7 µM. For the same compound, the GI50 [6] was 21.1 µM (inactive), the GI50 [7] was 35.2 µM (inactive) and the GI50 [8] was 31.9 µM (inactive). For the same compound, the GI50 [9] was 22.2 µM (inactive), the GI50 [20] was 35.4 µM (inactive) and the GI50 [10] was 55 µM (inactive). For the same compound, the GI50 [12] was 31.4 µM (inactive), the GI50 [14] was 33 µM (inactive) and the GI50 [15] was 31.7 µM (inactive). For the same compound, the GI50 [16] was 47.6 µM (inactive) and the GI50 [17] was 23.4 µM (inactive).

In the case of `CC1=NN(C(=O)CC(=O)Nc2ccccc2Cl)C(=O)C1/N=N/c1ccc(C(=O)O)cc1` (stereo not given), the GI50 [18] is reported as > 100 µM (inactive), the GI50 [1] is reported as 7.73 µM (inactive) and the GI50 [2] is reported as > 100 µM (inactive). The GI50 [3] was > 100 µM (inactive), the GI50 [4] was > 100 µM (inactive) and the GI50 [5] was greater than 100 µM. The GI50 [6] was > 100 µM (inactive), the GI50 [7] was > 100 µM (inactive) and the GI50 [8] was > 100 µM (inactive). The GI50 [9] was 51.1 µM (inactive), the GI50 [20] was > 100 µM (inactive) and the GI50 [10] was > 100 µM (inactive). The GI50 [11] was > 100 µM (inactive), the GI50 [12] was 19.6 µM (inactive) and the GI50 [14] was > 100 µM (inactive). The GI50 [15] was > 100 µM (inactive), the GI50 [16] was > 100 µM (inactive) and the GI50 [17] was > 100 µM (inactive).
